Here are results for one sequence from publication PMC12700550, “DLL4^+ neutrophils promote Notch1-mediated endothelial PANoptosis to exacerbate acute lung injury in sepsis” (The Journal of Clinical Investigation, 2025).

Several values for one entry are separate records, joined by “and”; a condition that tells them apart may be missing. Equal values may be shown once.

Test [1] addresses T1, rmNotch1 (Mus musculus, UniProt Q01705).
T1 construct: purchased R&D Systems 5267-TK (rmNotch1); 1389-D4-050/CF (rmDLL4)
As to the kind of experiment: BIAcore assay (surface plasmon resonance), rmDLL4 to immobilized rmNotch1. As to conditions: 1 μg/mL NDI. Type of test: binding, murine. The protocol: To determine rmDLL4’s direct interaction with rmNotch1, surface plasmon resonance (OpenSPR, Nicoya) was performed. High-sensitivity nitrilotriacetic acid (HS-NTA) sensors were used. Binding reactions were performed in running buffer (PBS, 0.005% P20, pH 7.4). The HS-NTA sensor was first cleaned by injection with 10 mM HCl (150 μL) followed by injection of 150 μL of 350 mM EDTA. […] For the effect of NDI efficacy on rmDLL4 binding to rmNotch1, the same HS-NTA sensor was used. rmDLL4 at all the concentrations used for binding with rmNotch1 was preincubated with 1 μg/mL NDI for 30 minutes at room temperature, and then the complexes were injected to channels 1 and 2. Binding reactions were carried out with the same running buffer at a flow rate of 40 μL/min at 20°C. Channel 1 was used as a control to evaluate nonspecific binding. The real-time interaction data were analyzed by Trace Drawer (Nicoya). The signals from channel 1 were subtracted from channel 2 coated with the ligand for all samples. Data were globally fitted for 1:1 binding (one-to-one model).

Test [2] deals with TNF-α. The test is described as follows: Serum TNF-α, CLP mice, ELISA. As to conditions: DLL4^+ neutrophil-injected CLP mice, 10 mg/kg, 20 h. Format: in vivo, mouse. The protocol: Sepsis was induced in mice by cecal ligation and puncture (CLP) as described previously ([45], [46]). Mice were anesthetized with isoflurane to a surgical plane and placed in a supine position. CLP was performed through a midline laparotomy. The abdomen was shaved and disinfected. Through a 2 cm midline incision, the cecum was exposed and then ligated with a 4-0 silk suture 1 cm proximal from the distal cecal extremity. For 20-hour CLP experiments, the cecum was punctured twice with a 22-gauge needle. A small amount of cecal content was extruded through both holes, and the ligated cecum was returned to the peritoneal cavity. The wound was closed in layers. For 10-day sepsis survival studies, the cecum was punctured once with a 22-gauge needle. A small amount of cecal content was extruded. Mice were allocated to the vehicle and adoptive transfer of DLL4^+ neutrophils or DLL4^– neutrophils groups. […]
Blood was collected by heart puncture and centrifuged at 1,500g and 4°C for 10 minutes, and the plasma was separated to assess cytokine levels using enzyme-linked immunosorbent assay (ELISA) kits (BD Biosciences). The plasma TNF-α (catalog 558534) and IL-6 (catalog 555240) levels were measured by ELISA.
In general terms: In an ELISA, binding on a coated surface is turned into a signal by an enzyme label.

Test [3] deals with KC. The test is described as follows: Lung keratinocyte chemoattractant (KC) mRNA, CLP mice. Type of test: in vivo, mouse. Conditions: 20 h; for lung KC mRNA (Figure 6H): 10 mg/kg NDI, vs sham, individual mice. The method, then:
Sepsis was induced in mice by cecal ligation and puncture (CLP) as described previously ([45], [46]). Mice were anesthetized with isoflurane to a surgical plane and placed in a supine position. CLP was performed through a midline laparotomy. The abdomen was shaved and disinfected. Through a 2 cm midline incision, the cecum was exposed and then ligated with a 4-0 silk suture 1 cm proximal from the distal cecal extremity. For 20-hour CLP experiments, the cecum was punctured twice with a 22-gauge needle. A small amount of cecal content was extruded through both holes, and the ligated cecum was returned to the peritoneal cavity. The wound was closed in layers. For 10-day sepsis survival studies, the cecum was punctured once with a 22-gauge needle. A small amount of cecal content was extruded. Mice were allocated to the vehicle and adoptive transfer of DLL4^+ neutrophils or DLL4^– neutrophils groups. Adoptive transfer mice received a retro-orbital injection of 1 × 10^6 cells per mouse DLL4^+ neutrophils or DLL4^– neutrophils in […] phosphate-buffered saline (PBS) immediately after abdominal closure in both the 20-hour experiments and the survival study. Vehicle groups received an equivalent volume of PBS, while treatment groups received NDI 10 mg/kg in […] PBS via retro-orbital injection after CLP. This dose was chosen primarily on the basis of our laboratory’s prior experience, we have consistently used this dose in mouse CLP models with reproducible efficacy and without observable toxicity ([39], [44]). Sham-operated animals underwent a laparotomy without CLP. After closure, the mice received a subcutaneous injection of 0.5 mL of normal saline to overcome surgery-induced dehydration. For 20-hour experiments, animals were not injected with antibiotics; however, for survival studies, animals were given 0.5 mg per kg body weight imipenem (lot 4D21K05, WG Critical Care LLC) subcutaneously in 0.5 mL saline once at the end of CLP. All mice were subcutaneously injected with a single dose of 0.1 mg/kg buprenorphine after CLP. […]

T1 sequence (Q9JI71 28-525 partner limits assumed): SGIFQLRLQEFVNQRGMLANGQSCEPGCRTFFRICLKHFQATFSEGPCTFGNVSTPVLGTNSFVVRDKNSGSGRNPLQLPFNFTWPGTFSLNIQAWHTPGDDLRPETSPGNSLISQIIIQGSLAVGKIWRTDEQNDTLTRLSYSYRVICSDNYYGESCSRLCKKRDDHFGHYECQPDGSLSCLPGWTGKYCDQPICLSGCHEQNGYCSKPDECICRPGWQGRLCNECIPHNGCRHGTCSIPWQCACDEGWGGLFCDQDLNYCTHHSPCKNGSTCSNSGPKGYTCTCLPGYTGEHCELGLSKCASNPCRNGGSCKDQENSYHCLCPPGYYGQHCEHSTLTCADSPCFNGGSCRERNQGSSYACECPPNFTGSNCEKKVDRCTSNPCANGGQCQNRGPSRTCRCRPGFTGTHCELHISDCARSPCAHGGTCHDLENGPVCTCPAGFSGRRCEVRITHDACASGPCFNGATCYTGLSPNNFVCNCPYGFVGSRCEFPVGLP
T1 sequence (Q01705 with tags, fused parts or gaps limits assumed): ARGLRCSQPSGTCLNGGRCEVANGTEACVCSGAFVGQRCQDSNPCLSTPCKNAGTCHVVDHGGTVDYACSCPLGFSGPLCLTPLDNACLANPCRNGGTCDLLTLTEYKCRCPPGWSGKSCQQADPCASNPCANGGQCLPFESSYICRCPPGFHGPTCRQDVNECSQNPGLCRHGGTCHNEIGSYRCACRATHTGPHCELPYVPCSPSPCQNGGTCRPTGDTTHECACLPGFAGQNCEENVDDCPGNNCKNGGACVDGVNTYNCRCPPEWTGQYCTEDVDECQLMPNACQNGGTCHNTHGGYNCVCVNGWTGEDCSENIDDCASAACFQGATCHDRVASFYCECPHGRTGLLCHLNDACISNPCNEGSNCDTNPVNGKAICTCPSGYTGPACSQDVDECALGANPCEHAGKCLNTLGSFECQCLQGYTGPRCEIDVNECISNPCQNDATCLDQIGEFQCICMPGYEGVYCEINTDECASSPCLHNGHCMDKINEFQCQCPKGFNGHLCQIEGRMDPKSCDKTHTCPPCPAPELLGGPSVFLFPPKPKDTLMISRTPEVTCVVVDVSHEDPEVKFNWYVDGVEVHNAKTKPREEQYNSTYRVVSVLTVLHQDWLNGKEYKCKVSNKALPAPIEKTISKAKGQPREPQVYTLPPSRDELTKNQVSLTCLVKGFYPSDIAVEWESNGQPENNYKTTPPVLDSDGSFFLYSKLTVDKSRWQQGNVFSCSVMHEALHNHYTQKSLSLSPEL

For the sequence ECAGSPCHNGGTCEDGI [NDI], the “effect on Notch1-DLL4 interaction” value in test [1] is given as “significantly disrupted Notch1-DLL4 interaction”. Besides, in test [2], the “effect on serum TNF-α” value is “significantly reduced the serum levels of hepatic and cell injury markers and proinflammatory cytokines”. Also, the “effect on lung KC mRNA” value in test [3] (DLL4^+ neutrophil-injected CLP mice, 10 mg/kg) was “significantly decreased the mRNA expression of TNF-α, IL-6, and KC in lung tissues”. The “lung KC mRNA (Figure 6H)” value in test [3] (DLL4^+ neutrophils + CLP) was 5.903 fold change and 0.6661 fold change and 4.862 fold change and 4.727 fold change and 4.686 fold change and 3.906 fold change and 2.6276 fold change and 0.3013 fold change and 7.635 fold change and 2.927 fold change and 2.999 fold change and 5.493 fold change and 8.856 fold change and 7.751 fold change and 5.829 fold change and 6.917 fold change; in test [3] (DLL4^– neutrophils + CLP) it was 5.187 fold change and 6.094 fold change and 6.9598 fold change and 7.18 fold change and 9.417 fold change and 3.542 fold change and 4.905 fold change and 5.1155 fold change and 3.48 fold change and 3.364 fold change.
